From publication PMC8944797, “Novel Antimicrobial Peptides Designed Using a Recurrent Neural Network Reduce Mortality in Experimental Sepsis” (Antibiotics, 2022)

Columns and labels:
[1] = tested on: carbapenem-resistant isolates of Klebsiella aerogenes; assay: MIC, broth dilution method (EUCAST); type: cell-based; details: median (first and third quartile) over n = 12 isolates; Mueller-Hinton broth, 37 °C, 18–20 h; range tested 0 to 32 μg/mL
Method: (§1) The strains of bacteria were isolated in 2021 from patients in the intensive care unit of the Stavropol State Regional Clinical Hospital. Identification and determination of antibiotic resistance of bacterial isolates were carried out using the disk diffusion method as part of a routine microbiological study in accordance with the European Committee on Antimicrobial Susceptibility Testing (EUCAST) protocols in the Department of Clinical Microbiology of the Center of Clinical Pharmacology and Pharmacotherapy.
(§2) The study of the antimicrobial activity of the synthesized peptides was performed by the standard broth dilution method according to the EUCAST guidelines. Briefly, pure bacterial cultures were cultured on a solid nutrient media (mannitol salt agar, BioMedia, Russia). From a fresh morning culture, we prepared a suspension in sterile saline corresponding to a McFarland turbidity standard of 0.5 (which is equivalent to 1–2 × 10^8 CFU/mL). The resulting suspension was dissolved in the BBL^TM Mueller-Hinton broth (Becton, Dickinson and Company, Franklin Lakes, NJ, USA) to obtain an inoculum with an approximate concentration of 5 × 10^5 CFU/mL. The inoculum (100 μL per well) was added to the wells of a sterile 96-well microtiter plate with a U-shaped bottom (Medpolymer, St. Petersburg, Russia). After that, serial two-fold dilutions of tested peptides (100 μL per well) were added to the wells. There were also sterility control wells (Mueller-Hinton broth only, without bacteria) and growth control wells (bacterial inoculum without peptides). Then, the plates were incubated in a thermostat at 37 °C. […] The MIC was taken as the minimum peptide concentration at which there was no visual growth in the corresponding well [26]. The peptides were dissolved in the Mueller–Hinton broth. The experiments with each peptide and bacterial isolate were performed in triplicate (in different plates). MIC values were calculated as median values of three independent replicates (calculations are presented in Supplementary Tables S1–S3).
(§3) Calculations of MICs (median, first, and third quartile) were performed in Microsoft Excel (Supplementary Tables S1–S3). Survival analysis by the Kaplan–Meier method and log-rank (Mantel–Cox) test was performed using GraphPad Prism version 9.2.0 for macOS (GraphPad Software, San Diego, CA, USA, www.graphpad.com, accessed on 29 January 2022).

[2] = tested on: carbapenem-resistant isolates of Pseudomonas aeruginosa; assay: MIC, broth dilution method (EUCAST); type: cell-based; details: median (first and third quartile) over n = 17 isolates; Mueller-Hinton broth, 37 °C, 18–20 h; range tested 0 to 32 μg/mL
Method: as §1, §2, §3

[3] = tested on: carbapenem-resistant isolates of K. pneumoniae; assay: MIC, broth dilution method (EUCAST); type: cell-based, Klebsiella pneumoniae; details: median (first and third quartile) over n = 18 isolates; Mueller-Hinton broth, 37 °C, 18–20 h; range tested 0 to 32 μg/mL
Method: as §1
as §2, with “S1–S3). […]” for “S1–S3).”

[4] = tested on: K. pneumoniae-induced sepsis; assay: murine experimental model of K. pneumoniae-induced sepsis, survival; type: in vivo, ICR (CD-1) mice; details: for Survival proportions: single i.p. 100 μg dose, n=12
Method: To assess the effectiveness of the studied peptides, a murine model of lethal generalized infection was used. The model of sepsis makes it possible to perform a simple and rapid screening assessment of the effectiveness of new antimicrobial agents in vivo [22, 28].
The ICR (CD-1) laboratory mice (females with an average weight of 30 g) were maintained in the vivarium of the Stavropol State Medical University. The mice (four animals per cage) were housed in temperature-controlled rooms at 24 °C and 50–60% humidity with a 12 h/12 h light/dark cycle and water and food availability ad libitum.
The animals were injected with bacterial suspensions of one of the carbapenem-resistant isolates of K. pneumoniae (isolate #7, Supplementary Table S2) prepared from a fresh morning culture in accordance with the McFarland turbidity standard of 15 (which corresponds to an approximate concentration of 4.5 × 10^9 CFU/mL). To determine the turbidity of the suspension, a DEN-1 densitometer (Biosan, Latvia) was used.
At t = 0 min, all animals were infected with K. pneumoniae: 150 μL of a 4.5 × 10^9 CFU/mL suspension (approx. 6.75 × 10^8 CFU per mice). 30 min after infection, the mice received a single injection of peptides at a dose of 100 μg. Mortality was assessed every 24 h for 5 days. Moribund animals were killed humanely to avoid unnecessary distress.
as §3

Row | Sequence | MIC [1] | MIC [2] | MIC [3] | Survival proportions ([4]; day 1 after infecting) | Survival proportions ([4]; day 2 after infecting) | Survival proportions ([4]; day 3 after infecting) | survival proportion by the end of the observation period ([4]; single intraperitoneal 100 μg dose 30 min after infection with 6.75 × 10^8 CFU K. pneumoniae, 5 days, n = 12 mice)
1 | GIFSKLAGKKIKNLLISGLKNIGKEVGM [PEP-36, synthesized LSTM RNN-generated peptide] | not active | not active | not active | 91,7% | 75% | 66,7% | 66.7%
2 | GILSSFKGVLKGAGKNLLGSLKDKLKN [PEP-174, synthesized LSTM RNN-generated peptide; probably printed as PEP-134 in b33] | not active | not active | not active |  |  |  | 
3 | KWKLFKKIWSSVKLKS [PEP-136, synthesized LSTM RNN-generated peptide] | not active | not active | not active |  |  |  | 
